Source: PubChem BioAssay AID250 (DTP/NCI, 2004)
Several values for one entry are separate records, joined by “and”; a condition that tells them apart may be missing. Identical values can stand only once. Inconclusive results and toxic doses are left out. How the source made its calls: active means survival T/C of 150% or more; inactive means T/C below 125% in these data. Numbered stars: 1 amine (or outer) side, 2 acyl side, 3 side chain; on linkers, the order of the positions; unused ones are H or OH. Bridge positions count the residues as written; N and C are the ends. Square brackets hold non-standard residues; d marks the D form. Peptide text beside a SMILES is read from it. I, II: the chains in the order shown. Actinocin(9to1) = Cc1c2oc3c(C)ccc(C(=O)[*:1])c3nc-2c(C(=O)[*:2])c(N)c1=O; aThr = C[C@H](O)[C@H](N)C(=O)O; NMeV = CN[C@H](C(=O)O)C(C)C; Sar = CNCC(=O)O

System: BDF1 mice, L1210 leukemia sc, survival T/C
Assay: NCI In Vivo Anticancer Drug Screen. Data for tumor model L1210 Leukemia (subcutaneous) in B6D2F1 (BDF1) mice
Conditions: higher = longer survival
Method: The antitumor activity of compounds was measured in mice bearing transplantable tumors. Survival or tumor size were measured and the results are expressed as the measurement made in the treated group (T) divided by the measurement made in the vehicle treated control group (C). The tumor model used in this assay is L1210 Leukemia (subcutaneous) in B6D2F1 (BDF1) mice

[1] = endpoint: median survival time, dose: 38.9 mg/kg/injection, schedule: Q01DX Z (sc), vehicle: methylcellulose (MC)
[2] = endpoint: median survival time, dose: 64.8 mg/kg/injection, schedule: Q01DX Z (sc), vehicle: methylcellulose (MC)
[3] = endpoint: median survival time, dose: 108.0 mg/kg/injection, schedule: Q01DX Z (sc), vehicle: methylcellulose (MC)
[4] = endpoint: median survival time, dose: 180.0 mg/kg/injection, schedule: Q01DX Z (sc), vehicle: methylcellulose (MC)
[5] = endpoint: median survival time, dose: 1.08 mg/kg/injection, schedule: Q01DX Z (sc), vehicle: saline
[6] = endpoint: median survival time, dose: 1.8 mg/kg/injection, schedule: Q01DX Z (sc), vehicle: saline
[7] = endpoint: median survival time, dose: 3.0 mg/kg/injection, schedule: Q01DX Z (sc), vehicle: saline

Measured: T/C

CS(=O)(=O)Nc1ccc(Nc2c3ccccc3nc3cc(N)ccc23)cc1
inactive: endpoint: mean survival time, dose: 1.0 mg/kg/injection, schedule: Q01DX009 (ip), vehicle: saline 103 % of control | endpoint: mean survival time, dose: 2.0 mg/kg/injection, schedule: Q01DX009 (ip), vehicle: saline 99 % of control

CCCCNc1ncnc2c1cnn2C
inactive: endpoint: median survival time, dose: 23.3 mg/kg/injection, schedule: Q01DX Z (sc), vehicle: methylcellulose (MC) 105 % of control | [1] 110 % of control | [2] 110 % of control | [3] 110 % of control | [4] 100 % of control

COc1cc(NS(C)(=O)=O)ccc1Nc1c2ccccc2nc2c(C)cccc12
inactive: endpoint: mean survival time, dose: 2.5 mg/kg/injection, schedule: Q01DX009 (ip), vehicle: saline 100 % of control and 114 % of control | endpoint: mean survival time, dose: 5.0 mg/kg/injection, schedule: Q01DX009 (ip), vehicle: saline 108 % of control and 103 % of control | endpoint: mean survival time, dose: 10.0 mg/kg/injection, schedule: Q01DX009 (ip), vehicle: saline 99 % of control

CC(=O)OCC(=O)[C@@]1(O)CC[C@H]2[C@@H]3C[C@H](F)C4=CC(=O)CC[C@]4(C)[C@H]3[C@@H](O)C[C@@]21C
active: endpoint: median survival time, dose: 39.0 mg/kg/injection, schedule: Q01DX Z (sc), vehicle: steriod suspending solution 155 % of control | endpoint: median survival time, dose: 65.0 mg/kg/injection, schedule: Q01DX Z (sc), vehicle: steriod suspending solution 155 % of control | endpoint: median survival time, dose: 108.0 mg/kg/injection, schedule: Q01DX Z (sc), vehicle: steriod suspending solution 150 % of control | endpoint: median survival time, dose: 180.0 mg/kg/injection, schedule: Q01DX Z (sc), vehicle: steriod suspending solution 161 % of control
inactive: endpoint: median survival time, dose: 8.4 mg/kg/injection, schedule: Q01DX Z (sc), vehicle: steriod suspending solution 100 % of control | endpoint: median survival time, dose: 14.0 mg/kg/injection, schedule: Q01DX Z (sc), vehicle: steriod suspending solution 100 % of control | endpoint: median survival time, dose: 23.0 mg/kg/injection, schedule: Q01DX Z (sc), vehicle: steriod suspending solution 111 % of control

CN(C)Nc1ncnc2nc[nH]c12
inactive: endpoint: median survival time, dose: 8.4 mg/kg/injection, schedule: Q01DX Z (sc), vehicle: water 100 % of control | endpoint: median survival time, dose: 14.0 mg/kg/injection, schedule: Q01DX Z (sc), vehicle: water 100 % of control | endpoint: median survival time, dose: 23.0 mg/kg/injection, schedule: Q01DX Z (sc), vehicle: water 111 % of control | endpoint: median survival time, dose: 39.0 mg/kg/injection, schedule: Q01DX Z (sc), vehicle: water 105 % of control | endpoint: median survival time, dose: 65.0 mg/kg/injection, schedule: Q01DX Z (sc), vehicle: water 111 % of control | endpoint: median survival time, dose: 108.0 mg/kg/injection, schedule: Q01DX Z (sc), vehicle: water 100 % of control

CSc1ncnc2nc[nH]c12
inactive: [1] 95 % of control | [2] 105 % of control | [3] 110 % of control | [4] 100 % of control

CC1CC(C)(O)CC(C(O)CC2CC(=O)NC(=O)C2)C1=O (centres undefined)
inactive: endpoint: median survival time, dose: 0.14 mg/kg/injection, schedule: Q01DX Z (sc), vehicle: saline 108 % of control | endpoint: median survival time, dose: 0.24 mg/kg/injection, schedule: Q01DX Z (sc), vehicle: saline 120 % of control | endpoint: median survival time, dose: 0.39 mg/kg/injection, schedule: Q02DX Z (sc), vehicle: saline 120 % of control | endpoint: median survival time, dose: 0.4 mg/kg/injection, schedule: Q01DX Z (sc), vehicle: saline 116 % of control | endpoint: median survival time, dose: 0.65 mg/kg/injection, schedule: Q02DX Z (sc), vehicle: saline 120 % of control | endpoint: median survival time, dose: 0.67 mg/kg/injection, schedule: Q01DX Z (sc), vehicle: saline 116 % of control | [5] 120 % of control | endpoint: median survival time, dose: 1.08 mg/kg/injection, schedule: Q02DX Z (sc), vehicle: saline 120 % of control | endpoint: median survival time, dose: 1.08 mg/kg/injection, schedule: Q## X Z (sc), vehicle: saline 110 % of control | endpoint: median survival time, dose: 1.12 mg/kg/injection, schedule: Q01DX Z (sc), vehicle: saline 104 % of control | [6] 120 % of control | endpoint: median survival time, dose: 1.8 mg/kg/injection, schedule: Q02DX Z (sc), vehicle: saline 120 % of control | endpoint: median survival time, dose: 1.8 mg/kg/injection, schedule: Q## X Z (sc), vehicle: saline 110 % of control | endpoint: median survival time, dose: 1.87 mg/kg/injection, schedule: Q01DX Z (sc), vehicle: saline 100 % of control | endpoint: median survival time, dose: 3.0 mg/kg/injection, schedule: Q01DX001 (sc), vehicle: saline 120 % of control | [7] 110 % of control | endpoint: median survival time, dose: 3.0 mg/kg/injection, schedule: Q## X Z (sc), vehicle: saline 115 % of control | endpoint: median survival time, dose: 3.11 mg/kg/injection, schedule: Q01DX Z (sc), vehicle: saline 100 % of control | endpoint: median survival time, dose: 5.0 mg/kg/injection, schedule: Q01DX001 (sc), vehicle: saline 120 % of control | endpoint: median survival time, dose: 5.0 mg/kg/injection, schedule: Q01DX Z (sc), vehicle: saline 100 % of control | endpoint: median survival time, dose: 5.0 mg/kg/injection, schedule: Q## X Z (sc), vehicle: saline 115 % of control | endpoint: median survival time, dose: 8.4 mg/kg/injection, schedule: Q02DX Z (sc), vehicle: saline 110 % of control | endpoint: median survival time, dose: 8.4 mg/kg/injection, schedule: Q## X Z (sc), vehicle: saline 120 % of control | endpoint: median survival time, dose: 14.0 mg/kg/injection, schedule: Q02DX Z (sc), vehicle: saline 100 % of control | endpoint: median survival time, dose: 14.0 mg/kg/injection, schedule: Q## X Z (sc), vehicle: saline 120 % of control

CCCCCCOP(=O)(N1CC1)N1CC1
active: endpoint: median survival time, dose: 23.0 mg/kg/injection, schedule: Q01DX001 (sc), vehicle: saline 150 % of control | endpoint: median survival time, dose: 23.0 mg/kg/injection, schedule: Q## X Z (sc), vehicle: saline 170 % of control | endpoint: median survival time, dose: 39.0 mg/kg/injection, schedule: Q01DX001 (sc), vehicle: saline 150 % of control | endpoint: median survival time, dose: 39.0 mg/kg/injection, schedule: Q## X Z (sc), vehicle: saline 220 % of control | endpoint: median survival time, dose: 65.0 mg/kg/injection, schedule: Q01DX001 (sc), vehicle: saline 170 % of control | endpoint: median survival time, dose: 65.0 mg/kg/injection, schedule: Q## X Z (sc), vehicle: saline 160 % of control | endpoint: median survival time, dose: 108.0 mg/kg/injection, schedule: Q01DX001 (sc), vehicle: saline 160 % of control | endpoint: median survival time, dose: 108.0 mg/kg/injection, schedule: Q## X Z (sc), vehicle: saline 150 % of control | endpoint: median survival time, dose: 180.0 mg/kg/injection, schedule: Q01DX001 (sc), vehicle: saline 150 % of control
inactive: endpoint: median survival time, dose: 0.65 mg/kg/injection, schedule: Q01DX Z (sc), vehicle: saline 100 % of control and 110 % of control | [5] 104 % of control and 110 % of control (2×)

Cc1c2oc3c(C)ccc(C(=O)N[C@@H]4C(=O)N[C@H](C(C)C)C(=O)N5CCC[C@H]5C(=O)N(C)CC(=O)N(C)[C@@H](C(C)C)C(=O)O[C@H]4C)c3nc-2c(C(=O)N[C@@H]2C(=O)N[C@H](C(C)C)C(=O)N3CCC[C@H]3C(=O)N(C)CC(=O)N(C)[C@@H](C(C)C)C(=O)O[C@H]2C)c(N)c1=O (I: [aThr][dV]P[Sar][NMeV] / II: [aThr][dV]P[Sar][NMeV]; ester I:1-I:C, II:1-II:C; linker I:N-II:N via Actinocin(9to1))
inactive: endpoint: median survival time, dose: 0.07 mg/kg/injection, schedule: Q01DX009 (sc), vehicle: saline 95 % of control | endpoint: median survival time, dose: 0.07 mg/kg/injection, schedule: Q01DX Z (sc), vehicle: saline 110 % of control | endpoint: median survival time, dose: 0.15 mg/kg/injection, schedule: Q01DX009 (sc), vehicle: saline 103 % of control | endpoint: median survival time, dose: 0.3 mg/kg/injection, schedule: Q01DX009 (sc), vehicle: saline 106 % of control | endpoint: median survival time, dose: 0.52 mg/kg/injection, schedule: Q01DX Z (sc), vehicle: saline 120 % of control | endpoint: median survival time, dose: 0.86 mg/kg/injection, schedule: Q01DX Z (sc), vehicle: saline 120 % of control

CCCCN(CCCC)P(=O)(N1CC1)N1CC1
inactive: [6] 110 % of control | [7] 110 % of control

Nc1nc(SCc2ccccc2)c2[nH]cnc2n1
inactive: [4] 122 % of control | endpoint: median survival time, dose: 300.0 mg/kg/injection, schedule: Q01DX Z (sc), vehicle: methylcellulose (MC) 122 % of control | endpoint: median survival time, dose: 500.0 mg/kg/injection, schedule: Q01DX Z (sc), vehicle: methylcellulose (MC) 111 % of control
